Assay [1] has as its system STAT3 Tyr705 phosphorylation. Nature of the assay: Western blot of STAT3 activation in pancreatic cancer cells. The assay is classed as cell-based. How it is done:
Fig. 2 N4 inhibits STAT3 activation in pancreatic cancer cells. A PANC-1, CAPAN-2, and BXPC-3 cells were treated with the indicated concentrations of N4 for 24 h. Then, p-STAT3 (Y705), p-STAT3 (S727), and STAT3 were detected by western blot assays with glyceraldehyde 3-phosphate dehydrogenase (GAPDH) used as the loading control. B Pancreatic cancer cells were starved in a medium lacking fetal bovine serum (FBS; basic medium) for 24 h, and then pretreated with N4 in basic medium for 24 h. Then, stimulated with IL-6 (20 ng/mL) for 30 min and lysed for western blot analysis using the indicated antibodies. C Expression levels of STAT3 downstream genes were detected by western blot following treatment of PANC-1 and CAPAN-2 cells with N4. D PANC-1 cells were seeded and allowed to attach, and then pretreated with 2 μM of N4 in FBS-free medium for 24 h. The cells were stimulated for 30 min using IL-6 (20 ng/mL). The STAT3 antibody (green) and 4, 6-diamidino-2-phenylindole (DAPI) (blue) was used for staining and STAT3 and the nucleus, respectively. The samples were photographed and analyzed. The scale bar represents 20 μm. E After 24 h treatment with 2 μM N4, PANC-1 cells were stimulated with IL-6 (20 ng/mL) for 30 min, and the cytoplasmic and nuclear extractions were analyzed by western blot. p-STAT3 (Y705) was used to detect STAT3, and GAPDH and H3 were used as the cytoplasm and nucleus internal control, respectively.
Western blotting was performed as previously described. Briefly, cells were treated with indicated compounds and then lysed by boiling. […]

In assay [2] the target is His-STAT3^127-722 protein (Homo sapiens, UniProt P40763). Nature of the assay: Microscale thermophoresis (MST) assay, STAT3^127–722. On the set-up: made in house. The assay is classed as binding. From the text: Fig. 3 N4 interacts with the STAT3-SH2 domain and interferes with the STAT3-EGFR and STAT3-NF-κB interactions. […] C–E The binding between N4 and STAT3 was examined in (C) SPR and (D) MST experiments. His-STAT3^127-722 protein was purified and used to examine the affinity between STAT3 and N4. (E) The binding between N4 and STAT3^SH2 was confirmed in MST assays. STAT3-SH2 protein was purified and labeled. N4 was serially diluted and mixed with equal volumes of labeled STAT3^SH2 protein. The MST signal was measured, and the data were analyzed by MO analysis software. F, G The FLAG-tag and HA-tag STAT3 expression plasmid was transfected into 293 T cells, followed by the addition of the indicated concentrations of N4. After 24 h, cells were lysed, and immunoprecipitation experiments were performed as described in Materials and Methods. H N4 represses STAT3 dimerization in pancreatic cancer cells. I After a 24 h treatment with 2 μM N4, pancreatic cancer cells were stimulated with IL-6 for 30 min. Cell lysates were immunoprecipitated with STAT3 overnight. […]
The MST assay was previously described. Binding affinities of N4 with the purified His-STAT3-SH2 were measured using the Monolith NT.115 device (NanoTemper Technologies). […] The samples were then loaded into premium capillaries (NanoTemper Technologies) and measured using the Monolith NT.115 device. […]

Setting [3] is: PANC-1, CAPAN-2, BXPC-3 cells, 24 h.

Chain of His-STAT3^127-722 protein (P40763 127-722): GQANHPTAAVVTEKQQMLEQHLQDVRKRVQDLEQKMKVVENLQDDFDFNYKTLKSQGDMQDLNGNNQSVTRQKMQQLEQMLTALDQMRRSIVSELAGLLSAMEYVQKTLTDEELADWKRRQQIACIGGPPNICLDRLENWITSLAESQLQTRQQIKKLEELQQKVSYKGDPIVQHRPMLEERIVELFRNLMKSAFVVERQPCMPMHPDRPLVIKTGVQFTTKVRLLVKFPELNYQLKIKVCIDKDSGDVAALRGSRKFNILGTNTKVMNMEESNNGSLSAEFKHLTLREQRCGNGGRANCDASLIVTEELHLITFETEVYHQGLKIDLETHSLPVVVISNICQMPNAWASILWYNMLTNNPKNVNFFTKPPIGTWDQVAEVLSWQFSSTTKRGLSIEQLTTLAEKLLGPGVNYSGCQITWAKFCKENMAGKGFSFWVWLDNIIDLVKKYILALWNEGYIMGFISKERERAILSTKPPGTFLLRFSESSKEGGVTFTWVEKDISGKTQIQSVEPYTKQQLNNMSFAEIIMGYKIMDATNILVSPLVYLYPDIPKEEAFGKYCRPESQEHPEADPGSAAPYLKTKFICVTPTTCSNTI

For `COc1cc2c(cc1C(=O)Nc1cccc3cccnc13)CCC1C(C)(C)C(=O)C(C#N)=C[C@]21C` (some centres unmarked) [N4], in assay [1] (setting [3]), the “STAT3 Tyr705 phosphorylation” value is recorded as “selectively blocked”; the “Ser-727 phosphorylation and STAT3 protein expression” value is on record as “no obvious inhibition”. Besides, in assay [1] (western blots), the “SHP2 (PTPase), p-STAT1, p-STAT5, p-extracellular signal-regulated kinase, and p-AKT levels” value is on record as “no obvious influence”. The compound further displayed a Kd in assay [2] (STAT3^127-722, value printed in figure) of 2020 nM. Moreover, binding in assay [2] (STAT3^127–722) was characterised by a dissociation constant (Kd) of 2020 nM.

The values above are taken from article PMC7906907, “Targeting STAT3 by a small molecule suppresses pancreatic cancer progression” (Oncogene, 2021).
